Measurements taken from patent US5912183A, “Peptide inhibitors of mitogenesis and motogenesis” (Pharmacia & Upjohn S.p.A., priority 1993, dated 1999).
Residues, ends and D or L forms follow the SMILES beside them.

Tested on: N- and C-SH2 domains of p85
Assay: BIAcore inhibition of binding of GST-SH2 domains to immobilized PDGF receptor phosphopeptide Y751
Set-up: species or system bovine
Details: range of phosphopeptide concentrations; 25° C.; FIG. 7
Protocol: FIG. 7. Evaluation of the relative affinities of phosphotyrosine 1313, 1349 and 1356 for the N- and C- SH2 domains of p85. Affinities were determined by biospecific interaction analysis with the BIAcore instrument (Jonsson, U., Fagerstam, L., Roos, H., Ronnberg, J., Sjolander, Stenber, E., Stahlberg, R. Urbaniczky, C., Ostlin, H., and Malmquist. 1991. Surface plasmon reasonance and microfluidics for real time biospecific interaction analysis. Biotechniques 11: 520-527; Jonsson, U. and M. Malmquist. 1992. Real time biospecific analysis. The integration of surface plasmon reasonance detection, general biospecific interface chemistry and microfluidics into one analytical system p. 291-336. In F. Turner (ed), Advances in Biosensors, vol. 2 JAI Press, London; Karlsson, R., Michaelsson, A., and L. Mattsson. 1991. Kinetic analysis of monoclonal antibody-antigen interactions with a new biosensor based analytical system. J. Immunol. Meth. 145: 229-246).
Relative affinities were determined by measuring the ability of the phosphopeptides to inhibit the interaction of the SH2 domains with an immobilized phosphopeptide (DMSKDESVDY*VPMLDMK) (SEQ. ID NO: 26) which includes Y751 in the human PDGF receptor. Panel A and B show the results of these measurements, expressed as % inhibition of binding to phosphopeptide Y751.
GST-SH2 domain fusion proteins. The N- and C-SH2 domains of the bovine PI 3-kinase p85 subunit (amino acids 314-431 and 612-722) were obtained by polymerase chain reaction and cloned into the pGEX-2 bacterial expression vector (Smith, D. B., and Johnson K. S., Gene 67: 31-40 (1988).
Glutathione-S-transferase (GST)-SH2 fusion proteins were purified from bacterial lysates by glutathione affinity chromatography (Panayotou, G., et al. EMBO J., 11: 4261-4272 (1992)). Amino acid analysis on an Applied Biosystems 420A analyzer was used to determine the concentration of the recombinant proteins.
Analysis of the interaction of Y1349 and Y1356 with the p85 N- and C- SH2 domains using the BIAcore. […]

`CSCC[C@H](NC(=O)[C@@H](NC(=O)[C@H](CCC(=O)O)NC(=O)[C@@H](N)Cc1ccc(OP(=O)(O)O)cc1)C(C)C)C(=O)N[C@@H](CC(C)C)C(=O)N[C@@H](CCCCN)C(=O)N[C@@H](CS)C(=O)N[C@@H](Cc1c[nH]c2ccccc12)C(=O)O` [H-Tyr*-Glu-Val-Met-Leu-Lys-Cys-Trp-OH] (HELM PEPTIDE1{[N[C@@H](Cc1ccc(OP(=O)(O)O)cc1)C(=O)[*:2]].E.V.M.L.K.C.W}$$$$V2.0) was tested, and the “Apparent relative affinity: inhibition of binding of p85 N- and C-SH2 domains to phosphopeptide Y751” value was “highest apparent affinity”.
